Consider 26 compounds from patent publication US20260297092A1, “PYRAZOLOPYRIMIDINE DERIVATIVES AS INHIBITORS OF NLRP3” (Takeda Pharmaceutical Company Limited, priority 2023, published 2026).

Assay [1] relates to NLRP3 inflammasome (IL-1β production in THP-1 cells). Put plainly: IL-1β TR-FRET Assay (percentage of inhibition at 300 nM, 6 μM or 10 μM). The format is cell-based, human. The conditions noted are these: Homo sapiens, LPS priming, ATP activation; for inhibition at 6 µM: THP-1, 6 μM, read-out: IL-1β inhibitory rate at 6 μM (%); for inhibition at 0.3 µM: THP-1, 300 nM, read-out: IL-1β inhibitory rate at 300 nM (%). The gist of the method:
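THP-1 cells were differentiated with 25 ng/mL IFN-γ for 24 h, primed with 50 ng/mL LPS in serum-free medium for 24 h, then given compound for 30 min before 20 mM ATP for 2 h. Supernatant IL-1β was measured by HTRF after 16-24 h at room temperature. Inhibition was normalized between DMSO (high) and 3 μM MCC-950 (low).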
On the technique in general: In TR-FRET formats the signal depends on donor and acceptor labels being close together.

The subject of assay [2] is TNF-α (NF-κB pathway, THP-1 cells). The assay can be described thus: TNF-α Assay (IC50). The conditions noted are these: Homo sapiens, 600 ng/mL LPS, 3 hours. Format: cell-based, human. In a few lines:
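THP-1 cells differentiated to macrophages with 25 ng/mL IFN for 24 h, plated 40,000/well in serum-free medium, preincubated with compounds 30 min at 37 °C, then stimulated with 600 ng/mL LPS for 3 h. Supernatant TNF-α measured by ELISA; IC50 from four-parameter logistic fit, 100% inhibition defined by TPCA-1.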

Usually IC50 stands for the concentration needed to halve the response being measured. On to `Cc1nc(-c2nc3nn(-c4c(C)cc(C5CC5)cc4C)cc3c(=O)[nH]2)co1` [Example 272, 2-(4-cyclopropyl-2,6-dimethylphenyl)-6-(2-methyl-1,3-oxazol-4-yl)-2,5-dihydro-4H-pyrazolo[3,4-d]pyrimidin-4-one], for which the inhibition at 6 µM in assay [1] was 95%. In assay [2], this compound showed an IC50 of more than 30 µM.
Take `Cc1cc(C)c(-n2cc3c(=O)[nH]c(-c4ccccc4F)nc3n2)c(O)c1` [Example 20, 6-(2-fluorophenyl)-2-(2-hydroxy-4,6-dimethylphenyl)-2,5-dihydro-4H-pyrazolo[3,4-d]pyrimidin-4-one]: the inhibition at 0.3 µM in assay [1] was 100%. In addition, the IC50 in assay [2] was more than 30 µM.
For `CO[C@@H]1COCC[C@@H]1c1nc2nn(-c3c(C)cc(C4CC4)cc3C)cc2c(=O)[nH]1` (racemic) [Example 310, racemic mixture of 1,5-anhydro-3-[2-(4-cyclopropyl-2,6-dimethylphenyl)-4-oxo-4,5-dihydro-2H-pyrazolo[3,4-d]pyrimidin-6-yl]-2,3-dideoxy-4-O-methyl-D-erythro-pentitol and 1,5-anhydro-3-[2-(4-cyclopropyl-2,6-dimethylphenyl)-4-oxo-4,5-dihydro-2H-pyrazolo[3,4-d]pyrimidin-6-yl]-3,4-dideoxy-2-O-methyl-D-erythro-pentitol], the inhibition at 6 µM in assay [1] was 99%. Also, the IC50 in assay [2] is more than 30 µM.
With `CCOc1nc2nn(-c3c(C)cc(C4CC4)cc3F)cc2c(=O)[nH]1` [Example 39, 2-(4-cyclopropyl-2-fluoro-6-methylphenyl)-6-ethoxy-2,5-dihydro-4H-pyrazolo[3,4-d]pyrimidin-4-one], the inhibition at 0.3 µM in assay [1] came to 100%. The compound further gave an IC50 in assay [2] of more than 30 µM.
For the compound `CO[C@H]1COCC[C@@H]1c1nc2nn(-c3c(C)cc(C4CC4)cc3C)cc2c(=O)[nH]1` (racemic) [Example 311, racemic mixture of 1,5-anhydro-3-[2-(4-cyclopropyl-2,6-dimethylphenyl)-4-oxo-4,5-dihydro-2H-pyrazolo[3,4-d]pyrimidin-6-yl]-2,3-dideoxy-4-O-methyl-L-threo-pentitol and 1,5-anhydro-3-[2-(4-cyclopropyl-2,6-dimethylphenyl)-4-oxo-4,5-dihydro-2H-pyrazolo[3,4-d]pyrimidin-6-yl]-2,3-dideoxy-4-O-methyl-D-threo-pentitol], the inhibition at 6 µM in assay [1] worked out at 102%. The IC50 in assay [2] is more than 30 µM.
With `Cc1cc(C)c(-n2cc3c(=O)[nH]c(-c4ccccn4)nc3n2)c(O)c1` [Example 9, 2-(2-hydroxy-4,6-dimethylphenyl)-6-(pyridin-2-yl)-2,5-dihydro-4H-pyrazolo[3,4-d]pyrimidin-4-one], in assay [1], the inhibition at 0.3 µM worked out at 100%. For the same compound, the 50% inhibitory concentration (IC50) in assay [2] is more than 30 µM.
For `CCOc1nc2nn(-c3c(C)cc(OC(F)(F)F)cc3F)cc2c(=O)[nH]1` [Example 125, 6-ethoxy-2-[2-fluoro-6-methyl-4-(trifluoromethoxy)phenyl]-2,5-dihydro-4H-pyrazolo[3,4-d]pyrimidin-4-one], in assay [1], the inhibition at 0.3 µM turned out to be 100%. Further, the concentration for half-maximal inhibition (IC50) in assay [2] was more than 30 µM.
On the same counts, the results for `Cc1cc(C)c(-n2cc3c(=O)[nH]c(C4CCCO4)nc3n2)c(O)c1` (stereo not shown) [Example 29, 2-(2-hydroxy-4,6-dimethylphenyl)-6-(oxolan-2-yl)-2,5-dihydro-4H-pyrazolo[3,4-d]pyrimidin-4-one] are 97% and more than 30 µM.
For `Cc1cc(C)c(-n2cc3c(=O)[nH]c(C)nc3n2)c(O)c1` [Example 74, 2-(2-hydroxy-4,6-dimethylphenyl)-6-methyl-2,5-dihydro-4H-pyrazolo[3,4-d]pyrimidin-4-one], the inhibition at 0.3 µM in assay [1] was found to be 99%. For the same compound, in assay [2], the half-inhibitory concentration (IC50) is more than 30 µM.
For `Cc1cc(C)c(-n2cc3c(=O)[nH]c(CC4CCCO4)nc3n2)c(O)c1` (stereo not shown) [Example 33, 2-(2-hydroxy-4,6-dimethylphenyl)-6-[(oxolan-2-yl)methyl]-2,5-dihydro-4H-pyrazolo[3,4-d]pyrimidin-4-one] the same measures were 97% and more than 30 µM.
On the same counts, the results for `CCOc1nc2nn(-c3c(F)cc(C4CC4)cc3OC(F)F)cc2c(=O)[nH]1` [Example 107, 2-[4-cyclopropyl-2-(difluoromethoxy)-6-fluorophenyl]-6-ethoxy-2,5-dihydro-4H-pyrazolo[3,4-d]pyrimidin-4-one] are 99% and more than 30 µM.
`CCOc1nc2nn(-c3c(C)cc(C)cc3Cl)cc2c(=O)[nH]1` [Example 70, 2-(2-chloro-4,6-dimethylphenyl)-6-ethoxy-2,5-dihydro-4H-pyrazolo[3,4-d]pyrimidin-4-one]: the inhibition at 0.3 µM in assay [1] came out at 100%. The IC50 in assay [2] is more than 30 µM.
For `Cc1ccc(-n2nc3nc(-c4ccccn4)[nH]c(=O)c3c2C)c(O)c1` [Example 124, 2-(2-hydroxy-4-methylphenyl)-3-methyl-6-(pyridin-2-yl)-2,5-dihydro-4H-pyrazolo[3,4-d]pyrimidin-4-one] the same measures were 97% and more than 30 µM.
On the same counts, the results for `CO[C@@H]1CCCC[C@@H]1c1nc2nn(-c3c(C)cc(C)cc3O)cc2c(=O)[nH]1` (racemic) [Example 12, racemic mixture of 2-(2-hydroxy-4,6-dimethylphenyl)-6-[(1R,2R)-2-methoxycyclohexyl]-2,5-dihydro-4H-pyrazolo[3,4-d]pyrimidin-4-one and 2-(2-hydroxy-4,6-dimethylphenyl)-6-[(1S,2S)-2-methoxycyclohexyl]-2,5-dihydro-4H-pyrazolo[3,4-d]pyrimidin-4-one] are 99% and 3.4 µM.
For `CCOc1nc2nn(-c3c(Br)cc(C)c(F)c3F)cc2c(=O)[nH]1` [Example 97, 2-(6-bromo-2,3-difluoro-4-methylphenyl)-6-ethoxy-2,5-dihydro-4H-pyrazolo[3,4-d]pyrimidin-4-one], in assay [1], the inhibition at 0.3 µM came to 66%. In assay [2], this compound returned a concentration for half-maximal inhibition (IC50) of more than 30 µM.
With `CCc1cc(C2CC2)cc(C)c1-n1cc2c(=O)[nH]c(COC(F)F)nc2n1` [Example 291, 2-(4-cyclopropyl-2-ethyl-6-methylphenyl)-6-[(difluoromethoxy)methyl]-2,5-dihydro-4H-pyrazolo[3,4-d]pyrimidin-4-one], in assay [1], the inhibition at 6 µM came out at 98%. In assay [2], this compound had a half-maximal inhibitory concentration (IC50) of more than 30 µM.
With `CCc1nc2nn(-c3c(F)cc(C4CC4)cc3C(F)F)cc2c(=O)[nH]1` [Example 295, 2-[4-cyclopropyl-2-(difluoromethyl)-6-fluorophenyl]-6-ethyl-2,5-dihydro-4H-pyrazolo[3,4-d]pyrimidin-4-one], the inhibition at 6 µM in assay [1] turned out to be 105%. The compound further gave an IC50 in assay [2] of more than 30 µM.
Turning to `COCCOc1nc2nn(-c3c(C)cc(C4CC4)cc3C)cc2c(=O)[nH]1` [Example 194, 2-(4-cyclopropyl-2,6-dimethylphenyl)-6-(2-methoxyethoxy)-2,5-dihydro-4H-pyrazolo[3,4-d]pyrimidin-4-one], in assay [1], the inhibition at 0.3 µM worked out at 100%. In assay [2], this compound gave a 50% inhibitory concentration (IC50) of more than 30 µM.
For `CCOc1nc2nn(-c3c(C)ccc(CC)c3O)cc2c(=O)[nH]1` [Example 72, 6-ethoxy-2-(3-ethyl-2-hydroxy-6-methylphenyl)-2,5-dihydro-4H-pyrazolo[3,4-d]pyrimidin-4-one], the inhibition at 0.3 µM in assay [1] came to 94%. The IC50 in assay [2] is more than 30 µM.
As to `Cc1cc(C)c(-n2cc3c(=O)[nH]c(Cn4cccn4)nc3n2)c(O)c1` [Example 75, 2-(2-hydroxy-4,6-dimethylphenyl)-6-[(1H-pyrazol-1-yl)methyl]-2,5-dihydro-4H-pyrazolo[3,4-d]pyrimidin-4-one], the inhibition at 0.3 µM in assay [1] was 98%. In assay [2], the IC50 was more than 30 µM.
For `CCOc1nc2nn(-c3c(F)cc(C)cc3Cl)cc2c(=O)[nH]1` [Example 135, 2-(2-chloro-6-fluoro-4-methylphenyl)-6-ethoxy-2,5-dihydro-4H-pyrazolo[3,4-d]pyrimidin-4-one] the same measures were 98% and more than 30 µM.
In the case of `Cc1cc(Cl)ccc1-n1cc2c(=O)[nH]c(C3CCCN(C)C3)nc2n1` (stereo not shown) [Example 102, 2-(4-chloro-2-methylphenyl)-6-(1-methylpiperidin-3-yl)-2,5-dihydro-4H-pyrazolo[3,4-d]pyrimidin-4-one], in assay [1] (THP-1, 10 μM, read-out: IL-1β inhibitory rate at 10 μM (%)), the inhibition at 10 µM is 97%. In assay [2], this compound gave an IC50 of more than 30 µM.
As for `Cc1cc(C)c(-n2cc3c(=O)[nH]c(OC(C)C)nc3n2)c(O)c1` [Example 7, 2-(2-hydroxy-4,6-dimethylphenyl)-6-[(propan-2-yl)oxy]-2,5-dihydro-4H-pyrazolo[3,4-d]pyrimidin-4-one], the inhibition at 0.3 µM in assay [1] was found to be 99%. The compound further registered an IC50 in assay [2] of more than 30 µM.
With `Cc1cc(C)c(-n2cc3c(=O)[nH]c(-c4ccccc4)nc3n2)c(O)c1` [Example 5, 2-(2-hydroxy-4,6-dimethylphenyl)-6-phenyl-2,5-dihydro-4H-pyrazolo[3,4-d]pyrimidin-4-one], in assay [1], the inhibition at 0.3 µM turned out to be 99%. The same compound yielded a half-inhibitory concentration (IC50) in assay [2] of more than 30 µM.
As for `CCOc1nc2nn(-c3ncc(Br)cc3Br)cc2c(=O)[nH]1` [Example 161, 2-(3,5-dibromopyridin-2-yl)-6-ethoxy-2,5-dihydro-4H-pyrazolo[3,4-d]pyrimidin-4-one], the inhibition at 0.3 µM in assay [1] was found to be 97%. This compound yielded an IC50 in assay [2] of more than 30 µM.
On the same counts, the results for `COC1(c2nc3nn(-c4c(C)cc(C)cc4O)cc3c(=O)[nH]2)CCC1` [Example 35, 2-(2-hydroxy-4,6-dimethylphenyl)-6-(1-methoxycyclobutyl)-2,5-dihydro-4H-pyrazolo[3,4-d]pyrimidin-4-one] are 96% and more than 30 µM.
